According to ChEMBL document CHEMBL1201862, “PubChem BioAssay data set” (2004):
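Five compound concentrations were applied to cells in 96-well plates for 48 hours; endpoints were derived by simple linear interpolation of the resulting dose-response curve. GI50 marks 50% less growth.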 Active and inactive are the calls of the source. Cut-off read from the data, not from the text of the source: active = GI50 up to about 1.1 µM and inactive = higher.

Key:
Experiment in all cases: NCI tumour cell line growth inhibition, 48 h
CCRF-CEM = test system: CCRF-CEM
A549 = test system: A549
HCT-116 = test system: HCT-116
T47D = test system: T47D
MDA-MB-231 = test system: MDA-MB-231
NCI-H522 = test system: NCI-H522
PC-3 = test system: PC-3
SF-268 = test system: SF-268
CAKI-1 = test system: CAKI-1
RPMI-8226 = test system: RPMI-8226
IGROV-1 = test system: IGROV-1
U-251 = test system: U-251
OVCAR-5 = test system: OVCAR-5
NCI-H226 = test system: NCI-H226
NCI-H460 = test system: NCI-H460
LOX IMVI = test system: LOX IMVI
HCT-15 = test system: HCT-15
SW-620 = test system: SW-620
SR = test system: SR
Hs-578T = test system: Hs-578T

Structure (SMILES)	GI50 (CCRF-CEM)	GI50 (A549)	GI50 (HCT-116)	GI50 (T47D)	GI50 (MDA-MB-231)	GI50 (NCI-H522)	GI50 (PC-3)	GI50 (SF-268)	GI50 (CAKI-1)	GI50 (RPMI-8226)	GI50 (IGROV-1)	GI50 (U-251)	GI50 (OVCAR-5)	GI50 (NCI-H226)	GI50 (NCI-H460)	GI50 (LOX IMVI)	GI50 (HCT-15)	GI50 (SW-620)	GI50 (SR)	GI50 (Hs-578T)
CC(=O)OCCc1cc2ccccc2oc1=O	> 100 µM (inactive)	> 100 µM (inactive)	> 100 µM (inactive)	> 100 µM (inactive)	> 100 µM (inactive)	> 100 µM (inactive)	> 100 µM (inactive)	> 100 µM (inactive)	> 100 µM (inactive)	> 100 µM (inactive)	> 100 µM (inactive)	> 100 µM (inactive)	> 100 µM (inactive)	> 100 µM (inactive)	> 100 µM (inactive)	> 100 µM (inactive)	> 100 µM	> 100 µM (inactive)	> 100 µM (inactive)	> 100 µM (inactive)
CC(=O)OCC1OC(n2c(-c3cccs3)c3c(c(C#N)c2=S)-c2ccccc2CC3)C(OC(C)=O)C(OC(C)=O)C1OC(C)=O (centres undefined)	9.91 µM (inactive)	13.2 µM (inactive)	7.67 µM (inactive)	5.07 µM (inactive)	16.6 µM (inactive)	10.7 µM (inactive)	9.04 µM (inactive)	14.9 µM (inactive)	9.59 µM (inactive)	3.28 µM (inactive)	9.04 µM (inactive)	10.1 µM (inactive)	26.5 µM (inactive)	28.4 µM (inactive)	11.5 µM (inactive)	6.82 µM (inactive)	8.26 µM	15.5 µM (inactive)	3.05 µM (inactive)	7.52 µM (inactive)
CC[N+](C)(CC)Cc1ccccc1[N+](=O)[O-]	> 100 µM (inactive)	> 100 µM (inactive)	> 100 µM (inactive)	> 100 µM (inactive)	72.8 µM (inactive)	> 100 µM (inactive)	44.8 µM (inactive)	59.4 µM (inactive)	> 100 µM (inactive)	> 100 µM (inactive)	> 100 µM (inactive)	53.7 µM (inactive)	> 100 µM (inactive)	64.7 µM (inactive)	> 100 µM (inactive)	> 100 µM (inactive)	> 100 µM	87.7 µM (inactive)	> 100 µM (inactive)	> 100 µM (inactive)
CCN(CC)CCNc1ccc2ncn3c4cc(OC)c(OC)c(O)c4c(=O)c1c23	0.897 µM (active)	11.9 µM (inactive)	0.556 µM (active)	21.8 µM (inactive)	5.93 µM (inactive)	12.6 µM (inactive)	6.52 µM (inactive)	3.49 µM (inactive)	14 µM (inactive)	3.03 µM (inactive)	12.5 µM (inactive)	12.9 µM (inactive)	21.5 µM (inactive)	12.3 µM (inactive)	1.39 µM (inactive)	1.24 µM (inactive)	9.91 µM	1.4 µM (inactive)	1.29 µM (inactive)	13.2 µM (inactive)
CCOC(=O)c1cc(-c2ccc(OC)c(OC)c2)c[nH]1	> 10 µM (inactive)	> 10 µM (inactive)	> 10 µM (inactive)	> 10 µM (inactive)	> 10 µM (inactive)	> 10 µM (inactive)	> 10 µM (inactive)	> 10 µM (inactive)	> 10 µM (inactive)	> 10 µM (inactive)	> 10 µM (inactive)	> 10 µM (inactive)	> 10 µM (inactive)	> 10 µM (inactive)	> 10 µM (inactive)	> 10 µM (inactive)	> 10 µM		> 10 µM (inactive)	> 10 µM (inactive)
CC1OC(OC2C(O)COC(OC3C(C)OC(OC4C(OC(=O)[C@]56CCC(C)(C)C[C@@H]5C5=CCC7[C@@]8(C)C[C@H](O)[C@H](OC9OC(CO)C(O)C(O)C9O)[C@@](C)(CO)[C@@H]8CC[C@@]7(C)[C@]5(C)CC6)OCC(O)C4O)C(O)C3OC3OCC(O)C(O)C3O)C2O)C(O)C(O)C1O (some centres undefined)	15.6 µM (inactive)	14 µM (inactive)	19.9 µM (inactive)	20.2 µM (inactive)	14.7 µM (inactive)	44.9 µM (inactive)	14 µM (inactive)	29.2 µM (inactive)	10.7 µM (inactive)	39 µM (inactive)		20 µM (inactive)	14.4 µM (inactive)	23.1 µM (inactive)	20.1 µM (inactive)	18.9 µM (inactive)	28.8 µM	14.9 µM (inactive)	17.9 µM (inactive)	40.9 µM (inactive)
COc1cc2ccc1OCc1cccc(n1)COc1ccc(cc1OC)/C=N\CCNCC/N=C\2		> 100 µM (inactive)	45.4 µM (inactive)	65.8 µM (inactive)	35.2 µM (inactive)	34.4 µM (inactive)	> 100 µM (inactive)	80.9 µM (inactive)	> 100 µM (inactive)	> 100 µM (inactive)	> 100 µM (inactive)	33.2 µM (inactive)	> 100 µM (inactive)	> 100 µM (inactive)	> 100 µM (inactive)	> 100 µM (inactive)	> 100 µM	> 100 µM (inactive)	> 100 µM (inactive)	35.4 µM (inactive)
Cc1cc2c(cc1-c1cc3c(cc1C)C(C(C)C)=C(O)C(=O)/C3=C\Nc1c(C)n(C)n(-c3ccccc3)c1=O)/C(=C/Nc1c(C)n(C)n(-c3ccccc3)c1=O)C(=O)C(O)=C2C(C)C	33 µM (inactive)	40.1 µM (inactive)	> 100 µM (inactive)	> 100 µM (inactive)	42.1 µM (inactive)	> 100 µM (inactive)	66.2 µM (inactive)	> 100 µM (inactive)	> 100 µM (inactive)	71.9 µM (inactive)	51.1 µM (inactive)	28.2 µM (inactive)	> 100 µM (inactive)	98.2 µM (inactive)	54.1 µM (inactive)		> 100 µM	61.9 µM (inactive)	39.2 µM (inactive)	> 100 µM (inactive)
Cc1cc2c(s1)C(=O)c1sccc1C2=O		0.625 µM (active)	0.998 µM (active)	1.63 µM (inactive)	1.07 µM (active)	0.552 µM (active)	0.942 µM (active)	0.762 µM (active)	1.75 µM (inactive)	1.88 µM (inactive)	1.66 µM (inactive)	1.29 µM (inactive)	1.86 µM (inactive)	1.76 µM (inactive)	1.72 µM (inactive)	0.152 µM (active)	1.19 µM	0.275 µM (active)	3.01 µM (inactive)	0.417 µM (active)
C[Si](C)(C)OC1c2[nH]c3ccccc3c2CN2C(=O)CCC12 (centres undefined)		> 100 µM (inactive)	> 100 µM (inactive)	> 100 µM (inactive)	> 100 µM (inactive)	> 100 µM (inactive)	> 100 µM (inactive)	> 100 µM (inactive)	> 100 µM (inactive)	> 100 µM (inactive)	> 100 µM (inactive)	> 100 µM (inactive)	> 100 µM (inactive)	> 100 µM (inactive)	> 100 µM (inactive)	> 100 µM (inactive)	> 100 µM	> 100 µM (inactive)	> 100 µM (inactive)	> 100 µM (inactive)
